How the values were obtained:
Isoprenyl transferase = target: T1, Isoprenyl transferase (Streptococcus pneumoniae serotype 4 (strain ATCC BAA-334 / TIGR4), UniProt Q97SR4); experiment: Inhibition of Streptococcus pneumoniae UPPS
T1 sequence (Q97SR4 whole entry): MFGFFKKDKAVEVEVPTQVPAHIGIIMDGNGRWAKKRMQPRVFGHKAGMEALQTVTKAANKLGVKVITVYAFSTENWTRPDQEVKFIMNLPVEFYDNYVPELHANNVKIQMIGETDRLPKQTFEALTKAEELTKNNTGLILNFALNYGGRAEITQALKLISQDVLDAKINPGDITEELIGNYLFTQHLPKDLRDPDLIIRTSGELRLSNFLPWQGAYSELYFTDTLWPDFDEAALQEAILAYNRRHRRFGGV

[1] = target: T2, Farnesyl pyrophosphate synthase (Homo sapiens, UniProt P14324); experiment: Inhibition of human FPPS
T2 sequence (P14324 whole entry): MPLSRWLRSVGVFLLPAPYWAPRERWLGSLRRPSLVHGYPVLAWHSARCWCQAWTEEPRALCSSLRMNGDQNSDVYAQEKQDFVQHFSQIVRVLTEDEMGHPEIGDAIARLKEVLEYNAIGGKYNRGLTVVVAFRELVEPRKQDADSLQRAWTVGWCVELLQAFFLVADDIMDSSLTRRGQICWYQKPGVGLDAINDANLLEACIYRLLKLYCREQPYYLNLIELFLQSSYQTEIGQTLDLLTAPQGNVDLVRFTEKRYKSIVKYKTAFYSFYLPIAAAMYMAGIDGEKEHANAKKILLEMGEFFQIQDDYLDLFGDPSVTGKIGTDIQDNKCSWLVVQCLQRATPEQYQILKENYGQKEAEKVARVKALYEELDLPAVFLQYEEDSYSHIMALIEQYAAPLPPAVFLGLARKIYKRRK

IC50 (Isoprenyl transferase) [µM]	IC50 [1] [µM]	Structure (SMILES)
1.1		O=C1CC(Cc2ccccc2)NC(=O)C1C(=O)Nc1ccc(Nc2ccccc2)cc1 (stereo unspecified)
0.11	> 50	O=C1CC(Cc2ccccc2)NC(=O)C1C(=O)Nc1ccc(N2CCCCC2)cc1 (stereo unspecified)
1.1		O=C(Nc1ccc(-c2ccccc2)cc1)C1C(=O)OC(Cc2ccccc2)C1=O (stereo unspecified)
0.11	> 50	O=C1CC(Cc2ccccc2)NC(=O)C1C(=O)Nc1ccc(Oc2ccccc2)cc1 (stereo unspecified)
